Laboratory results from article PMC11125357, “Assessment of Anticancer Properties of Argemone mexicana L. and Berberine: A Comparative Study” (Plants, 2024).
Where “and” joins values, the source holds several entries; their conditions need not be identical. Equal entries are not always repeated. Entries after “also recorded” stand apart in the source; their conditions may differ. Marks after values point to notes of the source that are not given here.

Tests used:
[1] = ABTS scavenging test; conditions: 50% decrease of ABTS radical, 734 nm, mean ± SD
Method: (§1) The antioxidant activity was determined by the DPPH, ABTS radical scavenging, and FRAP (Ferric Reducing Antioxidant Power) methods. In the DPPH and ABTS assays, Vitamin C served as the positive control. In all treatment evaluations, the concentrations ranged from 15.63, 31.25, 62.50, […], 250, 500, and 1000 µg/mL.
The antioxidant activity was determined using the ABTS radical scavenging method, where the antioxidant activity (free radical scavenging capacity) was quantified as IC50 in µg/mL. […] The ABTS radical scavenging assay was conducted in 96-well plastic microplates (Corning®), and the percentage inhibition of ABTS at 734 nm was calculated using Formula (8) as follows:(8) ABTS scavenging %=Abs734nm Control−Abs734 Sample/Abs734nm Control×100

[2] = tested on: PBMC (human peripheral blood mononuclear) cells; assay: MTT cell viability assay in PBMC; type: cell-based; conditions: 72 h of incubation, mean ± SD
Method: (§2) The HEP-G2 cancer cell line and the normal VERO cell line were cultured in DMEM supplemented with 10% FBS, 2% NaHCO3, and HEPES. All tests performed with these cells were carried out in 96-well flat-bottom plastic microplates (Corning® Labware and Equipment, Oneonta, NY, USA) due to the adherent nature of these cells. L5178Y-R cells and PBMC were maintained in RPMI-1640 culture medium supplemented with 10% FBS and 1% antibiotic/antimycotic solution. All the tests performed with these cells were carried out in 96-well curved-bottom plastic microplates (Corning®) because these cells are non-adherent.
(§3) Prior to the application of the treatments, the cells were incubated at 37 °C in a humidified incubator (Sanyo MCO-19AIC CO2 Incubator, Sanyo Electric Co., Ltd., Gunma-ken, Japan) with 5% CO2 for 24 h for adaptation. The cell viability was determined by MTT assay; MTT color intensity was directly associated with the number of living cells after 72 h of incubation. Mitochondrial enzymes, specifically succinate dehydrogenase, reduce MTT tetrazolium salt to form formazan; this reaction produces a purple–blue product that can be measured using spectrophotometry since the in vitro cell viability can be tested using the MTT colorimetric assay. Therefore, we decided to perform an MTT assay to correlate mitochondrial activity with viability. […]

[3] = DPPH scavenging test; conditions: 50% decrease of DPPH, 517 nm, mean ± SD
Method: as §1
The antioxidant activity was assessed using the DPPH radical assay, where the antioxidant activity (free radical scavenging capacity) was quantified as IC50 in µg/mL. […] The DPPH radical scavenging assay was conducted in a 96-well flat-bottom plastic microplate (Corning®). The percentage inhibition of DPPH at 517 nm was determined using a UV/VIS spectrophotometer and calculated using Formula (7) as follows:(7) DPPH scavenging %=Abs517 Control−Abs517 Sample/Abs517 Control×100

[4] = tested on: murine lymphoma (L5178Y-R) cells; assay: MTT cell viability assay in L5178Y-R cells; type: cell-based; conditions: Mus musculus, L5178, 72 h of incubation, mean ± SD, read-out: IC50 (µg/mL) in Cells, L5178 Y-R
Method: as §2
(§4) Prior to the application of the treatments, the cells were incubated at 37 °C in a humidified incubator (Sanyo MCO-19AIC CO2 Incubator, Sanyo Electric Co., Ltd., Gunma-ken, Japan) with 5% CO2 for 24 h for adaptation. The cell viability was determined by MTT assay; MTT color intensity was directly associated with the number of living cells after 72 h of incubation. Mitochondrial enzymes, specifically succinate dehydrogenase, reduce MTT tetrazolium salt to form formazan; this reaction produces a purple–blue product that can be measured using spectrophotometry since the in vitro cell viability can be tested using the MTT colorimetric assay.

[5] = tested on: murine macrophages (J774A.1 cell line); assay: Nitric oxide production (Griess reagent); type: cell-based
Method: The macrophage cultures were incubated in triplicate in 25 cm^2 tissue culture flasks (Corning Glass Works, Corning®, Oneonta, NY, USA) in a total volume of 7 mL of RPMI-1640 culture medium supplemented with 10% FBS and 1% antibiotic/antimycotic solution and maintained at 37 °C in 5% CO2. A concentration of 200 ng/mL of E. coli O26:B6 LPS served as an inflammatory-inducing agent to stimulate NO production. NO production was assessed by measuring nitrite accumulation in the supernatant using Griess reagent. A standard curve was generated using NaNO2 (1 M) to interpret the test results.

[6] = Hemolytic test; type: cell-based; conditions: human red blood cells (erythrocytes), pH 7.2; concentration causing 50% hemolysis of human red blood cells, mean ± SD
Method: The hemolytic activity was assessed using the hemolysis test. Treatments evaluated were prepared in PBS (pH 7.2 ± 0.2) in concentrations ranging from 10, 100, 200, 400, 600, 800, 1000, and 2000 µg/mL; the percent (%) of hemolysis was determined by measuring the Abs at 540 nm for each treatment.

[7] = tested on: Artemia salina nauplii; assay: Lethality in Artemia salina; type: in vivo; conditions: 24 h of exposure, mean ± SD
Method: Artificial seawater was prepared using 20 g of sea salt and 6 mg of brewer’s yeast dissolved in 500 mL of distilled H2O (pH 7.8). Prior to the assay, the artificial seawater was conditioned by supplying air with an aquarium pump for 24 h. For the hatching of A. salina nauplii, a rectangular glass container (17 × 14 × 7 cm) was adapted, with a dark section where the cysts were incubated and an illuminated area that allows only hatched nauplii to be obtained by means of phototropism. After an incubation period of 48 h under room temperature conditions of 25 ± 2.0 °C (aeration and constant light), the test was carried out using 96-well transparent plastic microplates with a concave bottom (Corning®), in which 20 nauplii and different concentrations of the treatments (10, 100, 200, 400, 600, 800, 1000, and 2000 µg/mL) were deposited in a final volume of 200 µL per well [46]. […] Counting of live and dead larvae in each well of the microplate was performed with the use of a stereoscope microscope. […] A. salina nauplii viability was determined by Formula (6) as follows:(6) A. salina Viability %= Survival Treatment Count/ Survival Control Count×100

[8] = tested on: VERO (monkey kidney epithelial) non-tumoral cells; assay: MTT cell viability assay in VERO cells; type: cell-based, African green monkey; conditions: Primates, 72 h of incubation, mean ± SD
Method: as §2, §3

[9] = tested on: HEP-G2 (human hepatocellular carcinoma) cells; assay: MTT cell viability assay in HEP-G2 cells; type: cell-based; conditions: HepG2, 72 h of incubation, mean ± SD
Method: as §2, §4

[10] = tested on: human erythrocytes, AAPH-induced hemolysis; assay: Anti-hemolytic test by the AAPH assay; type: cell-based; conditions: Erythrocyte; protection against AAPH radical (150 mM) in human erythrocytes, mean ± SD
Method: The AAPH inhibition test, as previously reported, was used to determine the anti-hemolytic activity. Hemolysis was induced by the AAPH radical (150 mM, prepared in PBS) as a positive control. The concentrations of the treatments were the same as in the hemolysis assay plus the AAPH.

Compound	ABTS IC50 [1]	IC50 [2]	DPPH IC50 [3]	IC50 [4]	activity in response to NO production ([5]; 0.98 to 500 µg/mL)	NO production in macrophages compared to LPS ([5]; 0.5 h, 0.00–500 µg/mL)	NO production in macrophages compared to LPS ([5]; 4 h, 0.00–31.25 µg/mL)	NO production in macrophages compared to LPS ([5]; 4 h, 62.50–250 µg/mL)	NO production in macrophages compared to LPS ([5]; 4 h, 500–1000 µg/mL)	NO production in macrophages compared to LPS ([5]; 24 h, 0.00–500 µg/mL)	NO production in macrophages compared to LPS ([5]; BER at 1000 µg/mL, 0.5, 4 and 24 h)	IC50 [6]	A. salina LD50 [7]	IC50 [8]	IC50 [9]	IC50 [10]
COc1ccc2cc3[n+](cc2c1OC)CCc1cc2c(cc1-3)OCO2 [BER, 16,17-dimethoxy-5,7-dioxa-13-azoniapentacyclo [11.8.0.0^2,10.0^4,8.0^15,20]henicosa-1(13),2,4(8),9,14,16,18,20-octaene]	40.29 ± 9.02 ^a,* µg/mL	27.1 ± 7.16 µg/mL	44.80 ± 1.22 ^a,* µg/mL	< 5 µg/mL	immunomodulatory activity	no significant increase in NO production	no increase in NO production	behaved in the same way as LPS	increase in NO production greater than that of LPS	no increase in ON production	increased NO production; also recorded: significantly greater effect on NO production compared to LPS	713 ± 38 µg/mL	178.00 µg/mL and 178.00 ± 29.70 ^b,** µg/mL	908 ± 31.9 µg/mL	56.9 ± 9.45 µg/mL	36.9 ± 5.49 µg/mL
O=C1O[C@H]([C@@H](O)CO)C(O)=C1O [Vitamin C, ascorbic acid]	81.76 ± 6.30 ^b µg/mL		68.90 ± 3.11 ^b µg/mL													
